IC50 data for eleven molecules are collected here from patent US7723523B2, “Tetrahydropyridothiophenes” (4SC AG, priority 2004, dated 2010).

The test system of assay [1] is RKO colon adenocarcinoma cells (RKOp27) arrested by expression of ectopic p27Kip1. Briefly: Alamar Blue cell viability assay on RKOp27 cells arrested by Ponasterone A-induced p27Kip1 (cell cycle specific mode of action). Conditions: Homo sapiens, RKOp27, 72 h, cells arrested by p27Kip1 induced with 10 μM Ponasterone A, 72 hours incubation, read-out: IC50 RKO p27 arrested. In kind it is cell-based. The essentials:
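Viability measured by Alamar Blue fluorescence (ex 544, em 590 nm) after 72 h, 37 °C compound exposure in quadruplicate, normalized to untreated cells as 100%. Cells were p27Kip1-arrested RKOp27, induced with 10 μM Ponasterone A at seeding; compound added 24 h later.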
(In general: The colour change of resazurin is a common sign of viable cells or microbes.)

Assay [2] concerns RKO (RKOp27) human colon adenocarcinoma cells. Briefly: Alamar Blue cell viability assay, anti-proliferative/cytotoxic activity on proliferating RKOp27 cells. Type of assay: cell-based. The following applies: absence of Ponasterone A, 72 hours incubation, read-out: IC50 RKO p27 proliferating. The procedure, abridged:
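IC50 values come from concentration-effect curves of Alamar Blue fluorescence (544/590 nm), relative to untreated controls set at 100%. Cells were RKOp27, seeded at 4000/well in DMEM with 10% FCS and exposed from 24 h post-seeding for 72 h (37 °C, 5% CO2) to semi-log dilutions, each run in quadruplicate.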

Broadly, the IC50 is the concentration that gives 50% inhibition.

As to `CCOc1ccccc1/C=C/C(=O)Nc1sc2c(c1C#N)CCN(C(=O)OCCc1ccccn1)C2` [Example 239, 3-Cyano-2-[(E)-3-(2-ethoxy-phenyl)-allanoylamino]-4,7-dihydro-5H-thieno[2,3-c]pyridine-6-carboxylic acid 2-pyridin-2-yl-ethyl ester], the concentration for half-maximal inhibition (IC50) in assay [1] was at least 100 µM; in assay [2], at most 2 µM.
With `N#Cc1c(NC(=O)/C=C/c2ccccc2)sc2c1CCN(C(=O)Cc1c[nH]c3ccccc13)C2` [Example 182, (E)-N-[3-Cyano-6-(2-1H-indol-3-yl-ethanoyl)-4,5,6,7-tetrahydro-thieno[2,3-c]pyridin-2-yl]-3-phenyl-acrylamide], the IC50 was at least 50 µM in assay [1] and at most 0.5 µM in assay [2].
In the same order, the values of `CCOC(=O)N1CCc2c(sc(NC(=O)/C=C/c3ccc[nH]3)c2C#N)C1` [Example 103, 3-Cyano-2-((E)-3-1-H-pyrrol-2-yl-allanoylamino)-4,7-dihydro-5H-thieno[2,3-c]pyridine-6-carboxylic acid ethylester] are at least 100 µM and at most 2 µM.
The matching figures for `N#Cc1c(NC(=O)/C=C/c2ccccc2Cl)sc2c1CCN(C(=O)CCc1cccnc1)C2` [Example 215, (E)-3-(2-Chloro-phenyl)-N-[3-cyano-6-(3-pyridin-3-yl-propanoyl)-4,5,6,7-tetrahydro-thieno[2,3-c]pyridin-2-yl]-acrylamide]: at least 100 µM and at most 2 µM.
Turning to `N#Cc1c(NC(=O)/C=C/c2cccnc2)sc2c1CCN(C(=O)OCCc1cccnc1)C2` [Example 159, 3-Cyano-2-((E)-3-pyridin-3-yl-allanoylamino)-4,7-dihydro-5H-thieno[2,3-c]pyridine-6-carboxylic acid 2-pyridin-3-yl-ethyl ester], the IC50 in assay [1] is at least 100 µM; in assay [2], at most 2 µM.
As for `COCCC(=O)N1CCc2c(sc(NC(=O)/C=C/c3ccccc3OC)c2C#N)C1` [Example 211, (E)-N-[3-Cyano-6-(3-methoxy-propanoyl)-4,5,6,7-tetrahydro-thieno[2,3-c]pyridin-2-yl]-3-(2-methoxy-phenyl)-acrylamide], the half-inhibitory concentration (IC50) was at least 100 µM in assay [1] and at most 2 µM in assay [2].
In the same order, the values of `CCSC(=O)N1CCc2c(sc(NC(=O)/C=C/c3ccccc3OC)c2C#N)C1` [Example 50, 3-Cyano-2-[(E)-3-(2-methoxy-phenyl)-allanoylamino]-4,7-dihydro-5H-thieno[2,3-c]pyridine-6-carbothioic acid S-ethyl ester] are at least 100 µM and at most 2 µM.
Consider `N#Cc1c(NC(=O)/C=C/c2ccccc2)sc2c1CCN(C(=O)OCCc1ccncc1)C2` [Example 126, 3-Cyano-2-((E)-3-phenyl-allanoylamino)-4,7-dihydro-5H-thieno[2,3-c]pyridine-6-carboxylic acid 2-pyridin-4-yl-ethyl ester], for which the values for the IC50 in assay [1] and in assay [2] were at least 100 µM and at most 2 µM, respectively.
For `CCOC(=O)N1CCc2c(sc(NC(=O)/C=C/c3ccc(-c4ccccc4)o3)c2C#N)C1` [Example 91, 3-Cyano-2-[(E)-3-(5-phenyl-furan-2-yl)-allanoylamino]-4,7-dihydro-5H-thieno[2,3-c]pyridine-6-carboxylic acid ethyl ester], the IC50 in assay [1] is at least 100 µM; in assay [2] it was at most 2 µM.
The matching figures for `CCOC(=O)N1CCc2c(sc(NC(=O)/C=C/c3ccccc3C(F)(F)F)c2C#N)C1` [Example 23, 3-Cyano-2-[(E)-3-(2-trifluoromethyl-phenyl)-allanoylamino]-4,7-dihydro-5H-thieno[2,3-c]pyridine-6-carboxylic acid ethyl ester]: over 100 µM and at most 2 µM.
Turning to `N#Cc1c(NC(=O)/C=C/c2cccnc2)sc2c1CCN(C(=O)Oc1ccccn1)C2` [Example 154, 3-Cyano-2-((E)-3-pyridin-3-yl-allanoylamino)-4,7-dihydro-5H-thieno[2,3-c]pyridine-6-carboxylic acid pyridin-2-yl ester], the half-inhibitory concentration (IC50) was at least 100 µM in assay [1] and at most 2 µM in assay [2].
